Data reported in PubChem BioAssay (NCI).
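Step 1: Grow cells in 96-well plates. Step 2: Expose to compound for 48 hours at 5 concentrations. Step 3: Interpolate endpoints linearly; if unreached, use highest concentration. At the GI50, growth is halved. TGI: total growth inhibition.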

Key:
Experiment in all cases: DTP human tumour cell line panel, 48 h
CAKI-1 renal = tested on: CAKI-1 renal
EKVX NSCLC = tested on: EKVX NSCLC
HOP-92 NSCLC = tested on: HOP-92 NSCLC
HS 578T breast = tested on: HS 578T breast
IGROV1 ovarian = tested on: IGROV1 ovarian
LOX IMVI melanoma = tested on: LOX IMVI melanoma
OVCAR-3 ovarian = tested on: OVCAR-3 ovarian
SF-539 CNS = tested on: SF-539 CNS
SNB-75 CNS = tested on: SNB-75 CNS
T-47D breast = tested on: T-47D breast

SMILES	GI50 (CAKI-1 renal)	TGI (CAKI-1 renal)	GI50 (EKVX NSCLC)	TGI (EKVX NSCLC)	GI50 (HOP-92 NSCLC)	TGI (HOP-92 NSCLC)	GI50 (HS 578T breast)	TGI (HS 578T breast)	GI50 (IGROV1 ovarian)	TGI (IGROV1 ovarian)	GI50 (LOX IMVI melanoma)	TGI (LOX IMVI melanoma)	GI50 (OVCAR-3 ovarian)	TGI (OVCAR-3 ovarian)	GI50 (SF-539 CNS)	TGI (SF-539 CNS)	GI50 (SNB-75 CNS)	TGI (SNB-75 CNS)	GI50 (T-47D breast)	TGI (T-47D breast)
O=C(Cc1csc2nc(-c3ccc(Cl)cc3)cn12)N/N=C/c1ccccc1O	0.782 µM	16 µM	3.26 µM	> 100 µM	3.39 µM	32.4 µM	10 µM	> 100 µM	3.05 µM	> 100 µM	1.93 µM	36.1 µM	0.36 µM	83.8 µM	7.93 µM	> 100 µM	4.32 µM	> 100 µM	4.16 µM	> 100 µM
Cc1n[n+]([O-])c(C)cc1[N+](=O)[O-]	–	–	–	45.4 µM	–	34.3 µM	–	66.9 µM	–	49 µM	–	57.9 µM	–	27.6 µM	–	59.3 µM	–	54 µM	–	35.3 µM
CC(C)CC1c2[nH]c3ccccc3c2C[C@H]2C(=O)NC(CCCCNC(=O)OC(C)(C)C)C(=O)N12 (some centres undefined)	–	> 100 µM	–	> 100 µM	–	89.8 µM	–	25.6 µM	–	> 100 µM	–	> 100 µM	–	16.6 µM	–	–	–	–	–	16.1 µM
COc1ccc(-n2c3c(c4cc(O)ccc42)Cc2ccccc2C3=O)cc1	–	> 100 µM	–	–	–	–	–	> 100 µM	–	> 100 µM	–	> 100 µM	–	> 100 µM	–	> 100 µM	–	31.9 µM	–	–
Cc1cc2ccc(OC(=O)c3ccc(N=C(N)N)cc3)cc2oc1=O	–	> 100 µM	–	> 100 µM	–	> 100 µM	–	71.6 µM	–	> 100 µM	–	> 100 µM	–	45.9 µM	–	61.6 µM	–	71.9 µM	–	95 µM
Clc1ccc(Nc2nc(Nc3ccccc3)nc(Nc3ccc(-c4cc(-c5ccc(Cl)cc5)on4)cc3)n2)cc1	15.3 µM	69.2 µM	3.14 µM	88.4 µM	1.93 µM	20 µM	11.4 µM	> 100 µM	12.7 µM	> 100 µM	13.7 µM	> 100 µM	27.4 µM	> 100 µM	37.9 µM	> 100 µM	21.6 µM	> 100 µM	8.94 µM	> 100 µM
COc1cc(C2SCC(=O)N2c2ccc(NC(C)=O)cc2)cc(OC)c1OC (centres undefined)	–	> 100 µM	–	> 100 µM	–	> 100 µM	–	> 100 µM	–	> 100 µM	–	> 100 µM	–	> 100 µM	–	> 100 µM	–	–	–	> 100 µM
O=C(O)C(O)C(O)C(O)C(O)C(=O)O (centres undefined)	–	> 100 µM	–	> 100 µM	–	> 100 µM	–	–	–	> 100 µM	–	> 100 µM	–	> 100 µM	–	> 100 µM	–	> 100 µM	–	> 100 µM
N=c1ccc2nc(N)nn(O)c-2c1	–	> 100 µM	–	> 100 µM	–	–	–	> 100 µM	–	> 100 µM	–	> 100 µM	–	> 100 µM	–	> 100 µM	–	> 100 µM	–	> 100 µM
CC1(C(=O)O)C[C@](C)(C(=O)OCc2ccccc2)C[C@](C)(C(=O)OCc2ccccc2)C1 (some centres undefined)	–	71.2 µM	–	75.7 µM	–	54 µM	–	89.8 µM	–	52.7 µM	–	92.4 µM	–	73.7 µM	–	64.5 µM	–	79.7 µM	–	> 100 µM
O=C(CC(c1ccccc1)C1C(=O)NC(=S)NC1=O)c1ccc([N+](=O)[O-])cc1 (centres undefined)	–	59.4 µM	–	> 100 µM	–	> 100 µM	–	> 100 µM	–	> 100 µM	–	> 100 µM	–	> 100 µM	–	> 100 µM	–	> 100 µM	–	> 100 µM
COc1ccc(-c2nn(-c3ccc(NC(=O)c4cc(Cl)cc(Cl)c4)cc3)cc2-c2ccncc2)cc1Cl	3.04 µM	> 100 µM	–	–	–	–	–	–	> 100 µM	> 100 µM	3.2 µM	> 100 µM	> 100 µM	> 100 µM	2 µM	> 100 µM	–	–	> 100 µM	> 100 µM
Cc1cc(S(=O)(=O)NC2=NCCN2Cc2ccccc2)c(S)cc1Cl	–	> 100 µM	–	> 100 µM	–	–	–	–	–	> 100 µM	–	> 100 µM	–	> 100 µM	–	> 100 µM	–	> 100 µM	–	–
CCOC(=O)c1c(-c2cccc(Cl)c2)c(C(=O)OC)c(C)c2sc(C=O)nc12	–	43 µM	–	31.9 µM	–	34.2 µM	–	50.5 µM	–	32.9 µM	–	28.9 µM	–	31.3 µM	–	35.4 µM	–	> 100 µM	–	45.6 µM
C[N+]1(CCC(=O)c2ccccc2)CCC2CCC(C2)C1 (centres undefined)	–	> 100 µM	–	> 100 µM	–	> 100 µM	–	> 100 µM	–	> 100 µM	–	> 100 µM	–	> 100 µM	–	> 100 µM	–	> 100 µM	–	> 100 µM
O=C(O)C1CCCCN1C(=O)Cc1c[nH]c2ccccc12 (centres undefined)	–	> 100 µM	–	> 100 µM	–	> 100 µM	–	–	–	> 100 µM	–	> 100 µM	–	> 100 µM	–	> 100 µM	–	> 100 µM	–	> 100 µM
CN(C)C(=O)OC1=CC2CCC(C1)N2C (centres undefined)	–	> 100 µM	–	> 100 µM	–	> 100 µM	–	> 100 µM	–	> 100 µM	–	> 100 µM	–	> 100 µM	–	> 100 µM	–	> 100 µM	–	> 100 µM
